Test results from patent publication US12258316B2, “Biphenyl compounds useful as muscarinic receptor antagonists” (THERAVANCE BIOPHARMA R&D IP, LLC, priority 2004, dated 2025).

Key:
[1] = test system: ACh-induced bronchoconstriction; assay: Duration of bronchoprotection in guinea pig model of acetylcholine-induced bronchoconstriction; type: in vivo; conditions: inhalation, 1.5 hours post-dose
Experimental: Determination of Duration of Bronchoprotection in Guinea Pig Model of Acetylcholine-Induced Bronchoconstriction
Groups of six male guinea pigs (Duncan-Hartley (HsdPoc:DH) Harlan, Madison, WI) weighing between 250 and 350 g were individually identified by cage cards. Throughout the study animals were allowed access to food and water ad libitum.
Test compounds were administered via inhalation over 10 minutes in a whole-body exposure dosing chamber (R&S Molds, San Carlos, CA). The dosing chambers were arranged so that an aerosol was simultaneously delivered to 6 individual chambers from a central manifold. Guinea pigs were exposed to an aerosol of a test compound or vehicle (WFI). […] This was measured gravimetrically by comparing pre- and post-nebulization weights of the filled nebulizer.
The bronchoprotective effects of test compounds administered via inhalation were evaluated using whole body plethysmography at 1.5, 24, 48 and 72 hours post-dose.
Forty-five minutes prior to the start of the pulmonary evaluation, each guinea pig was anesthetized with an intramuscular injection of ketamine (43.75 mg/kg), xylazine (3.50 mg/kg) and acepromazine (1.05 mg/kg). […] The depth of anesthesia was monitored and adjusted if the animal responded to pinching of its paw or if the respiration rate was greater than 100 breaths/minute. […]

hM3 receptor = biological target: T1, hM3 receptor (Homo sapiens, UniProt P20309); assay: Blockade of agonist-mediated calcium release via FLIPR assay; type: cell-based; conditions: CHO cells stably expressing the hM3 receptor, oxotremorine at EC90
T1 construct: expressed in transfected cells; host or cells: CHO cells
Excerpt: C. Blockade of Agonist-Mediated Calcium Release via FLIPR Assays
Muscarinic receptor subtypes (M1, M3 and M5 receptors), which couple to Gq proteins, activate the phospholipase C (PLC) pathway upon agonist binding to the receptor. As a result, activated PLC hydrolyzes phosphatyl inositol diphosphate (PIP2) to diacylglycerol (DAG) and phosphatidyl-1,4,5-triphosphate (IP3), which in turn generates calcium release from intracellular stores, i.e., endoplasmic and sarcoplasmic reticulum. […] This fluorescence event is measured in real time by the FLIPR, which detects the change in fluorescence from a monolayer of cells cloned with human M1 and M3, and chimpanzee M5 receptors. Antagonist potency can be determined by the ability of antagonists to inhibit agonist-mediated increases in intracellular calcium. […]
To determine antagonist potency, the dose-dependent stimulation of intracellular Ca^2+ release for oxotremorine is first determined so that antagonist potency can later be measured against oxotremorine stimulation at an EC90 concentration. […]
The parameters used for the FLIPR are: exposure length of 0.4 seconds, laser strength of 0.5 watts, excitation wavelength of 488 nm, and emission wavelength of 550 nm. Baseline is determined by measuring the change in fluorescence for 10 seconds prior to addition of agonist. […]

T1 sequence (P20309 whole entry): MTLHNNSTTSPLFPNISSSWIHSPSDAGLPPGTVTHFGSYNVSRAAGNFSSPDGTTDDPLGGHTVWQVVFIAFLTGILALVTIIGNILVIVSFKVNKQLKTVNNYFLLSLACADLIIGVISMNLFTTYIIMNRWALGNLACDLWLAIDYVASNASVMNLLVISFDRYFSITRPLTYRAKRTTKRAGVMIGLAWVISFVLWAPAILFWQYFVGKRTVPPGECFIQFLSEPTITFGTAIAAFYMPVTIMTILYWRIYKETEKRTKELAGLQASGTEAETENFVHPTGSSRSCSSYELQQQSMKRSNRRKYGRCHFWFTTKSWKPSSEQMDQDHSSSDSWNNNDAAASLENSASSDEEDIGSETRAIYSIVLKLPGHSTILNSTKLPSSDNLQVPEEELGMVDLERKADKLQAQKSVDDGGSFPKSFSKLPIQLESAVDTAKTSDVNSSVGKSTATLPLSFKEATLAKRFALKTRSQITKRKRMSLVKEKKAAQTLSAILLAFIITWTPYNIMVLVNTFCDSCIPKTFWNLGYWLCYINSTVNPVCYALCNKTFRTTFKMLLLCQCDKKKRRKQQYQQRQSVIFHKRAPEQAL

For `CN(CCN1CCC(OC(=O)Nc2ccccc2-c2ccccc2)CC1)C(=O)c1ccc(CN2CCC(C(N)=O)CC2)cc1` [Example 1, Biphenyl-2-ylcarbamic Acid 1-(2-{[4-(4-Carbamoylpiperidin-1-ylmethyl)benzoyl]methylamino}ethyl)piperidin-4-yl Ester], the “PD2(50) for ACh-induced bronchoconstriction” value [1] was “less than 200 μg/mL” and the Ki (hM3 receptor) was less than 5 nM.
